pEC50: −log10 of the molar value.
How the values were obtained:
[1] = Vapour adsorption and vapour desorption (moisture sorption isotherm); type: physicochemical; conditions: 25° C.
Protocol: The moisture sorption isotherm was recorded using a Dynamic Vapour Sorption Analyzer IGA Sorp from Hiden Analytical. The measuring temperature was 25° C. There was no sample preparation.

[2] = tested on: recombinant A549 cell line with luciferase reporter under hypoxia-responsible elements; assay: Cellular, functional in vitro test (luciferase reporter under hypoxia-responsible elements); type: cell-based; conditions: Homo sapiens; A549-derived luciferase reporter cell line
Excerpt: The activity of the compounds according to the invention is quantified with the aid of a recombinant cell line. The cell is originally derived from a human lung carcinoma cell line (A549, ATCC: American Type Culture Collection, Manassas, Va. 20108, USA). The test cell line is transfected in a stable manner with a vector which contains the reporter gene of Photinus pyralis luciferase (called luciferase in the following) under the control of an artificial minimal promoter. The minimal promoter comprises two hypoxia-responsible elements upstream of a TATA box [Oehme F., Ellinghaus P., Kolkhof P., Smith T. J., Ramakrishnan S., Hatter J., Schramm M., Flamme I., Biochem. Biophys. Res. Commun. 296 (2), 343-9 (2002)]. Under the effect of hypoxia (e.g. culturing in the presence of 1% oxygen for 24 hours) or under the action of non-selective dioxygenase inhibitors (e.g. desferroxamine in a concentration of 100 μM, cobalt chloride in a concentration of 100 μM or N-oxalylglycine diethyl ester in a concentration of 1 mM), the test cell line produces luciferase, which can be detected and quantified with the aid of suitable bioluminescence reagents (e.g. Steady-Glo® Luciferase Assay System, Promega Corporation, Madison, Wis. 53711, USA) and a suitable luminometer. […]

Solubility in water = type: physicochemical; conditions: comparison in words
Protocol: Method: Saturated solutions of the test substance were prepared by stirring a suspension in water at 25° C. for 16 hours. The suspensions obtained were then filtered, and the content in the filtrate was determined by HPLC.

[3] = Water uptake / hygroscopicity at customary environmental conditions; type: physicochemical
Protocol: The compound of the formula (I) is hygroscopic and, at customary environmental conditions (20-35° C., atmospheric pressure), takes up up to about 6% by weight of water even at a relative atmospheric humidity above 20% rh. At an atmospheric humidity of 30% rh, the uptake of 6% by weight of water is almost complete. If the atmospheric humidity decreases below 30% rh, the compound of the formula (I) releases part of the water it comprises. This uptake of water or release of water renders handling of the compound of the formula (I), for example weighing operations, and the production of the compound of the formula (I) in a uniform, stable and definined form for use in medicaments or the production of medicaments comprising compound of the formula (I) more difficult. In particular, this increases the technical expenditure during the production of administration forms comprising the compound of the formula (I), such as, for example, tablets, granules or drink solutions, since measures for controlling and regulating atmospheric humidity are required to maintain a uniform concentration of the compound of the formula (I). […]

Desorption ([1]; 5% rh) | pEC50 [2] | Adsorption ([1]; 0% rh) [%] | Desorption ([1]; 0% rh) [%] | Adsorption ([1]; 10% rh) [%] | Desorption ([1]; 10% rh) [%] | Desorption ([1]; 20% rh) [%] | solubility in water compared to the compound of the formula (I) (Solubility in water) | water comprised [3] | Structure (SMILES)
0.1% (5% rh) |  |  |  |  |  |  |  |  | Oc1c(-n2ccnn2)cnn1-c1cc(N2CCOCC2)ncn1 [Compound of the formula (I), 1-[6-(morpholin-4-yl)pyrimidin-4-yl]-4-(1H-1,2,3-triazol-1-yl)-1H-pyrazol-5-ol, reference compound]
 | 5.15 | 0 | 0 | 0 | 0 | 0 | higher solubility in water | less than 0.5 % by weight | [Na+].[O-]c1c(-n2ccnn2)cnn1-c1cc(N2CCOCC2)ncn1 [Compound of the formula (II), sodium 1-[6-(morpholin-4-yl)pyrimidin-4-yl]-4-(1H-1,2,3-triazol-1-yl)-1H-pyrazol-5-olate]
